Assay results reported in PMC8414367, “(E)-7-Ethylidene-lithocholic Acid (7-ELCA) Is a Potent Dual Farnesoid X Receptor (FXR) Antagonist and GPBAR1 Agonist Inhibiting FXR-Induced Gene Expression in Hepatocytes and Stimulating Glucagon-like Peptide-1 Secretion From Enteroendocrine Cells” (Frontiers in Pharmacology, 2021).
Like-named read-outs stand apart in the source and are kept apart here.

How the values were obtained:
AML12 = assay: MTS viability assay; assay type: cell-based, murine; conditions: Mus musculus; AML12, 24 h, MTS; read-out: IC50 (µM), cell viability
Protocol: (§1) The potential cytotoxicity of 7-alkylated chenodeoxycholic acid derivatives were assessed in different human (HepG2, HepaRG and Huh7) and murine (AML12) hepatocyte-derived cell lines. For this purpose, hepatic cells were treated at increasing concentration for 24h and analyzed by MTS viability assay.
(§2) Table S2. Cell viability was determined using the Cell Titer 96 Aqueous One Solution Cell Proliferation Assay (MTS assay) after treatment with test compounds for 24 h in four different hepatic cell lines. Vehicle (0.1% DMSO) and background (10% SDS; v/v, toxic control) controls of cell viability were set to be 100% and 0%, respectively.

MTS viability assay [1] = assay type: cell-based, murine; conditions: mouse, AML12 cells; AML12, 24 h, vehicle = 100%
Protocol: as §1, §2

human FXR = biological target: T1, human FXR (Homo sapiens, UniProt Q96RI1); assay: FXR luciferase reporter gene assay (FXRE-luc) in HepG2 cells, antagonistic mode; assay type: cell-based; conditions: for remaining activity at 10 µM: tested compound 10 µM; for remaining activity at 40 µM: tested compound 40 µM, * = significant effect on cellular viability; for capacity to antagonize OCA-stimulated FXR activation (in words): Figure 3B
T1 sequence (Q96RI1 1-486): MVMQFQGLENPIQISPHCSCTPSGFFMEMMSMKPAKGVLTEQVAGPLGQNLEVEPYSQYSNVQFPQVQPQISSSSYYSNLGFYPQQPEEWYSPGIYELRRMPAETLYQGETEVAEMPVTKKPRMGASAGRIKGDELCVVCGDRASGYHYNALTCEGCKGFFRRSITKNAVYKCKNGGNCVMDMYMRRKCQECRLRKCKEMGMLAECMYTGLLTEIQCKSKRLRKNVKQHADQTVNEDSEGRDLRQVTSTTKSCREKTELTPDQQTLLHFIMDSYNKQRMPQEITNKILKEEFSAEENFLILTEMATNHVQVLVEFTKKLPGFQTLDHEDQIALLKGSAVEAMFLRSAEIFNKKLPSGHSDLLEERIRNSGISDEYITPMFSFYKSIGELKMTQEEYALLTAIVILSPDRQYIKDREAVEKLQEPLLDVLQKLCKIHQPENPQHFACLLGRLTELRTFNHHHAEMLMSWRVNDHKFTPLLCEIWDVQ
T1 sequence (P19793 1-462 partner): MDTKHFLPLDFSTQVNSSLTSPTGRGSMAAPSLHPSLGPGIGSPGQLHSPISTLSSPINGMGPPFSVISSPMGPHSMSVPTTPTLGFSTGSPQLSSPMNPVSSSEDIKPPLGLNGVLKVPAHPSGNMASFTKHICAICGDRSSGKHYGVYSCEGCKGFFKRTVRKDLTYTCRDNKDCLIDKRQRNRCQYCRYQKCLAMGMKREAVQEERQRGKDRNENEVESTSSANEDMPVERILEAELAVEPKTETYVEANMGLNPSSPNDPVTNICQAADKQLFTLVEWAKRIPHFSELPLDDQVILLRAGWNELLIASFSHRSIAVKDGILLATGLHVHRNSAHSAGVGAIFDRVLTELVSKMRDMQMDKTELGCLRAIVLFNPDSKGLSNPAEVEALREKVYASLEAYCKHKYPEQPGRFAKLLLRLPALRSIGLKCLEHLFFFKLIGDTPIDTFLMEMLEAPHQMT

FXR LBD = biological target: T2, FXR LBD (Homo sapiens, UniProt Q96RI1); assay: LanthaScreen TR-FRET FXR Coactivator Assay, antagonistic mode (SRC-2 peptide recruitment); assay type: biochemical
T2 construct: purchased ThermoFisher Scientific PV4833
T2 sequence (Q96RI1 262-486 limits assumed): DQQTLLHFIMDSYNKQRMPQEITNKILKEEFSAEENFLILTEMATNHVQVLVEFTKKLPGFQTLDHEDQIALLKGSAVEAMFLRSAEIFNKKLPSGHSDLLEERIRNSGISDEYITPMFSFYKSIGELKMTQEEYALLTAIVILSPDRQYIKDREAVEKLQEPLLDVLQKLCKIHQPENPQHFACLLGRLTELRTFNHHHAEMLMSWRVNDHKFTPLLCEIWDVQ
Protocol: The LanthaScreen® TR-FRET FXR Coactivator Assay (goat, PV4833, ThermoFisher Scientific) was performed to assess the affinity of tested compounds to FXR ligand-binding domain (LBD) in agonistic and antagonistic models. In the antagonistic assays, the FXR LBD was co-incubated with OCA or GW4064, together with tested ligands in increasing concentrations. The assay was performed according to the manufacturer’s protocols. […] Data have been obtained from three independent experiments performed in 4 replicates.

HepaRG = assay: MTS viability assay; assay type: cell-based, human; conditions: Homo sapiens, 24 h, MTS, read-out: IC50 (µM), cell viability
Protocol: as §1, §2

HepG2 = assay: MTS viability assay; assay type: cell-based, human; conditions: Homo sapiens; HepG2, 24 h, MTS; read-out: IC50 (µM), cell viability
Protocol: as §1, §2

Huh7 = assay: MTS viability assay; assay type: cell-based, human; conditions: Homo sapiens, Huh-7; Huh7, 24 h, MTS; read-out: IC50 (µM), cell viability
Protocol: as §1, §2

MTS viability assay [2] = assay type: cell-based, human; conditions: human, vehicle = 100%
Protocol: as §1, §2

GPBAR1 = biological target: T3, GPBAR1 (Homo sapiens, UniProt Q8TDU6); assay: GPBAR1 CRE-luc luciferase reporter assay in HepG2 cells; assay type: cell-based; conditions: 10 µM, 5 h, LCA 10 µM set as 100%
T3 construct: host or cells: HepG2
T3 sequence (Q8TDU6 1-330): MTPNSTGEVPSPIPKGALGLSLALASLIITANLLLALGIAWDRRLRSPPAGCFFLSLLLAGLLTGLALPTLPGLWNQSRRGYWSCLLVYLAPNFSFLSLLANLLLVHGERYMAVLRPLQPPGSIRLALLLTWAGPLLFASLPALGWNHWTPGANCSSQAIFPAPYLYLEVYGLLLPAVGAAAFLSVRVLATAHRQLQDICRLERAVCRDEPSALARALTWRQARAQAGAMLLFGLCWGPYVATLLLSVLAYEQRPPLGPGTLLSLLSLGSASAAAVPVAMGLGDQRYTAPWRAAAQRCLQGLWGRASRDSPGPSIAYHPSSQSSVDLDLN
Protocol: (C) Effects of LCA and 7-ELCA (both at 10 µM) on intracellular generation of cAMP in differentiated NCI-H716 cells after 30 min treatment. The increase in cAMP level (ΔcAMP) is presented as the difference between cAMP concertation in the treated sample after subtraction of the cAMP in the nontreated control sample. (D) Concentration-response curves for activation of GPBAR1 by LCA and 7-ELCA. EC50 values were calculated using nonlinear fitting of concentration-response curves. […] GLP-1 was normalized to protein concentration and GPBAR1 mRNA expression to GAPDH mRNA. Data are presented as a fold to control nontreated (NT) samples. Forskolin (FSK, 10 µM) was used as a GPBAR1-independent activator of cAMP production.

[3] = HepG2, GW4064 1 µM, read-out: relative response (%) to the model FXR ligand activation (set to be 100%), GW4064 1 µM
[4] = HepG2, CDCA 20 µM, read-out: relative response (%) to the model FXR ligand activation (set to be 100%), CDCA 20 µM

Row | Structure (SMILES) | IC50 (AML12) [µM] | viability at 24 h, 10 µM (MTS viability assay [1]) [%] | IC50 (human FXR; HepG2, co-treatment with 1 µM OCA, 24 h, read-out: IC50, inhibition of OCA-induced FXR activation) [µM] | inhibition at 100 µM (human FXR; HepG2, at 100 µM, with 1 µM OCA, read-out: inhibition of FXR activation) [%] | remaining activity at 10 µM (human FXR; [3]) [%] | remaining activity at 40 µM (human FXR; [4]) [%] | remaining activity at 40 µM (human FXR; [3]) [%] | IC50 (FXR LBD; GW4064 1 µM, read-out: IC50, inhibition of GW4064-promoted interaction of SRC-2 and FXR) [µM] | IC50 (FXR LBD; OCA 1 µM, read-out: IC50, inhibition of OCA-induced recruitment of SRC-2 to FXR LBD) [µM] | IC50 (HepaRG) [µM] | IC50 (HepG2) [µM] | IC50 (Huh7) [µM] | viability at 24 h, 10 µM (MTS viability assay [2]; HepG2 cells, HepG2, 24 h) [%] | viability at 24 h, 10 µM (MTS viability assay [2]; HepaRG cells) [%] | viability at 24 h, 10 µM (MTS viability assay [2]; Huh7 cells, Huh7, 24 h) [%] | CRE-luc activation compared to LCA (in words) (GPBAR1) | capacity to antagonize OCA-stimulated FXR activation (in words) (human FXR; with 1 µM OCA)
1 | CC(CCC(=O)O)C1CCC2C3C(CCC12C)C1(C)CCC(O)CC1CC3(O)C(C)C (stereo not drawn) [2h, 3α,7α-Dihydroxy-7β-isopropyl-5β-cholan-24-oic acid] | 143 | 94 ± 3.7 | 17.5 ± 1.7 | ~90 | 91.4 ± 5.3 | 47.6 ± 0.3 | 63 ± 8.2 | 35.2 ± 5.4 | 25 ± 3.7 | 181 | 103.3 ± 1 | > 100 | 93.4 ± 7.4 | 101 ± 6.9 | 97.6 ± 7.3 |  | 
2 | C=CCCC[C@@]1(O)C[C@@H]2C[C@H](O)CC[C@]2(C)C2CC[C@@]3(C)C(CC[C@@H]3[C@H](C)CCC(=O)O)C21 (stereo partly drawn) [2j, 3α,7α-Dihydroxy-7β-(pent-4-en)-5β-cholan-24-oic acid] | 75 | 127 ± 7.1 |  |  | 93.6 ± 2.8 |  |  |  |  | 76.5 | 77.3 ± 1.2 | 34 ± 1.5 | 87.8 ± 6.7 | 93.1 ± 4.4 | 114 ± 7 | weak or no ability to act as agonists of GPBAR1 | maintained
3 | C=C[C@@]1(O)C[C@@H]2C[C@H](O)CC[C@]2(C)C2CC[C@@]3(C)C(CC[C@@H]3[C@H](C)CCC(=O)O)C21 (stereo partly drawn) [2d, 3α,7α-Dihydroxy-7β-vinyl-5β-cholan-24-oic acid] | > 200 | 106 ± 3.9 |  |  | 93.9 ± 6.6 | 80.2 ± 0.4 | 75.2 ± 4.6 |  |  | > 200 | 168.8 ± 1 | > 100 | 95.9 ± 8.3 | 104 ± 2.4 | 117 ± 5.6 |  | maintained
4 | C=CC[C@@]1(O)C[C@@H]2C[C@H](O)CC[C@]2(C)C2CC[C@@]3(C)C(CC[C@@H]3[C@H](C)CCC(=O)O)C21 (stereo partly drawn) [2g, 3α,7α-Dihydroxy-7β-allyl-5β-cholan-24-oic acid] | 161 | 109 ± 3.2 |  |  | 93.2 ± 0.6 | 107.2 ± 0.3 | 74.4 ± 4.4 |  |  | > 200 | 162 ± 2.1 | > 100 | 97.7 ± 9.1 | 126 ± 4.5 | 93.5 ± 10 | comparable activities to LCA | maintained
5 | C[C@H](CCC(=O)O)[C@H]1CCC2C3C(CC[C@@]21C)[C@@]1(C)CC[C@@H](O)C[C@H]1C[C@@]3(C)O (stereo partly drawn) [2b, 3α,7α-Dihydroxy-7β-methyl-5β-cholan-24-oic acid] | > 200 | 108 ± 7.7 |  |  | 85 ± 7.7 | 112 ± 1.6 | 64.9 ± 5 |  |  | > 200 | > 200 | > 200 | 99.7 ± 1.2 | 119.5 ± 1 | 106 ± 5.8 |  | 
6 | C#C[C@@]1(O)C[C@@H]2C[C@H](O)CC[C@]2(C)C2CC[C@@]3(C)C(CC[C@@H]3[C@H](C)CCC(=O)O)C21 (stereo partly drawn) [2e, 3α,7α-Dihydroxy-7β-ethynyl-5β-cholan-24-oic acid] | > 200 | 97.5 ± 6.6 |  |  | 80.3 ± 3.9 | 114.8 ± 0.7 | 64.8 ± 4.9 |  |  | > 200 | > 200 | > 200 | 96.5 ± 4.1 | 92.9 ± 6.5 | 103 ± 4.4 | weak or no ability to act as agonists of GPBAR1 | only minor antagonist activity
7 | CC[C@@]1(O)C[C@@H]2C[C@H](O)CC[C@]2(C)C2CC[C@@]3(C)C(CC[C@@H]3[C@H](C)CCC(=O)O)C21 (stereo partly drawn) [2c, 3α,7α-Dihydroxy-7β-ethyl-5β-cholan-24-oic acid] | > 200 | 105 ± 2 |  |  | 89 ± 6 | 67.1 ± 9.2 | 75.3 ± 2.5 |  |  | > 200 | > 200 | > 200 | 100 ± 3.9 | 117 ± 1.3 | 113 ± 4.8 |  | 
